The values that follow come from patent US6908912B2, “Pyrithione biocides enhanced by zinc metal ions and organic amines” (priority 1999, dated 2005).

Series [1] concerns Fusarium sp. and Cephalosporium sp. metalworking fluid field isolates. The series is described as follows: Efficacy against fungi in diluted (1:20) metalworking fluids, flask test (Examples 1-40). The format is cell-based.
The nature of series [2]: Solubility and stability of concentrated mixtures of sodium pyrithione, ZnCl2 and organic amines (Example 55). The conditions noted are these: for solubility and stability of mixture after 24 and 72 hours: mixtures of sodium pyrithione, ZnCl2 and the named amine.
Series [3] concerns Fusarium sp and Cephalosporium sp. Nature of the series: Culture tube test with formaldehyde releasing biocide, viable fungal counts (Example 52). In kind it is cell-based, fungi.
For series [4] the test system is unchanged. The series is described as follows: Prevention of fungal contamination of metalworking fluid, repeated challenge (Example 53). The format is cell-based, fungi.
Series [5] has as its system Klebsiella pnenmoniae bacteria. To be noted: cited from earlier work.
Series [6] has as its system Pseudomonas aeruginosa 9027, Escherichia coli 8739, Pseudomonas fluorescens 12201, Pseudomonas rubescens 12202, and Pseudomonas putida. In kind it is cell-based, bacteria.
The subject of series [7] is Pseudomonas aeruginosa, Escherichia coli, Pseudomonas fluorescens, Pseudomonas rubescens, and Pseudomonas putida. In kind it is cell-based, bacteria.
Series [8] is described as follows: Blue discoloration of metalworking fluids in the presence of iron ions, visual inspection (Example 54). The format is physicochemical.
Where [9] appears, read: Semi-Synthetic Fluid diluted 1:20, final 100 PPM NaPT, 21 PPM ZnCl2, 600 PPM amine or 1000 PPM Mixture as applicable.
Where [10] appears, read: Soluble Oil diluted 1:20, final 100 PPM NaPT, 21 PPM ZnCl2, 600 PPM amine or 1000 PPM Mixture as applicable.
Setting [11] is: Synthetic Fluid diluted 1:20, final 100 PPM NaPT, 21 PPM ZnCl2, 600 PPM amine or 1000 PPM Mixture as applicable.
Where [12] appears, read: Semi-synthetic MWF, Triazine 196 PPM ai TZ.
Setting [13] is: Semi-synthetic MWF, Triazine 393 PPM ai TZ.
Where [14] appears, read: Semi-synthetic MWF, Triazine 785 PPM ai TZ.

Values joined by “and” are separate entries in the source; they are usually repeats but may differ in a detail not shown here. Equal values may be shown once. Read-outs that look alike come from different tables or passages of the source.

As to 1-amino-2-propanol [Mixture 1A2P], the “Fungi/ml Day 1” value is reported as 4.7 × 10^4 Fungi/ml in series [1] (setting [9]), 4.6 × 10^4 Fungi/ml in series [1] (setting [10]) and 5.5 × 10^4 Fungi/ml in series [1] (setting [11]). For the same compound, the “Fungi/ml Day 4” value in series [1] (setting [9]) is 5.0 × 10^4 Fungi/ml; in series [1] (setting [10]), 2.5 × 10^4 Fungi/ml; in series [1] (setting [11]), 3.6 × 10^4 Fungi/ml.
`NCCCN` [1,3-Diaminopropane]: in series [2], the “Appearance at 24 Hrs” value is given as “S” and the “Appearance at 72 Hrs” value is reported as “S”.
With `NCCOCCO` [2(2-Aminoethoxy)ethanol], the “solubility and stability of mixture after 24 and 72 hours” value (from here on “solubility and stability of mixture”) in series [2] (room temperature) was “precipitates”.
Regarding `CCC(N)(CO)CO` [2-Amino-2-ethyl-1,3-propanediol], the “solubility and stability of mixture” value in series [2] (room temperature) is recorded as “precipitates”.
Regarding `COCCCN` [3-methoxypropylamine], the “solubility and stability of mixture” value in series [2] (room temperature) was “soluble mixtures after 24 hours but not after 72 hours”.
As to `NCCNCCN` [Diethylenetriamine], in series [2], the “Appearance at 24 Hrs” value is reported as “S” and the “Appearance at 72 Hrs” value is listed as “S”.
As for `CC(O)CNCC(C)O` (stereo not drawn) [Diisopropanolamine], the “solubility and stability of mixture” value in series [2] (room temperature) is given as “precipitates”.
In the case of `NCCO` [MEA, monoethanolamine], the “Fungi/ml Day 1” value in series [1] (setting [9]) was 4.3 × 10^4 Fungi/ml; in series [1] (setting [10]), 2.9 × 10^4 Fungi/ml; in series [1] (setting [11]), 4.7 × 10^4 Fungi/ml. Further, the “Fungi/ml Day 4” value in series [1] (setting [9]) is 7.0 × 10^4 Fungi/ml; in series [1] (setting [10]), 1.0 × 10^4 Fungi/ml; in series [1] (setting [11]), 3.6 × 10^4 Fungi/ml.
For the compound `CCCNCCO` [Propylethanolamine], in series [2] (mixture of NaPT 10.00, ZnCl2 1.74, organic amine(s) 60.50, water 27.76 weight %, room temperature), the “Appearance at 24 Hrs” value is reported as “S”.
In the case of `OCCN1CN(CCO)CN(CCO)C1` [Triazine, hexahydro-1,3,5-tris(2-hydroxyethyl)-s-triazine], the “Fungi/ml Day 3” value in series [3] (Soluble oil MWF, Triazine 49 PPM ai TZ) is on record as 3.0 × 10^3 Fungi/ml; in series [3] (Soluble oil MWF, Triazine 98 PPM ai TZ), 1.1 × 10^3 Fungi/ml; in series [3] (Soluble oil MWF, Triazine 196 PPM ai TZ) it was 100 Fungi/ml; in series [3] (Soluble oil MWF, Triazine 393 PPM ai TZ), 0 Fungi/ml; in series [3] (Soluble oil MWF, Triazine 589 PPM ai TZ) it was 0 Fungi/ml; in series [3] (Soluble oil MWF, Triazine 785 PPM ai TZ), 0 Fungi/ml. Besides, the results for the “Fungi/ml Week 4” value in series [4] (setting [12]), in series [4] (setting [13]) and in series [4] (setting [14]) were 3.6 × 10^4 Fungi/ml, 0 Fungi/ml and 0 Fungi/ml, respectively. Moreover, the figures for the “Fungi/ml Week 9” value in series [4] (setting [12]), in series [4] (setting [13]) and in series [4] (setting [14]) were 6.2 × 10^4 Fungi/ml, 70 Fungi/ml and 0 Fungi/ml, respectively.
As to `On1ccccc1=S` [pyrithione, 1-hydroxy-2-pyridinethione], the “activity against Klebsiella pnenmoniae bacteria” value in series [5] is given as “favorable enhancement”.
Regarding sodium pyrithione [NaPT], in series [6], the “Bacteria/ml Day 1” value was 4.0 × 10^5 Bacteria/ml and 5.2 × 10^6 Bacteria/ml and 4.3 × 10^6 Bacteria/ml; the “Bacteria/ml Day 4” value was 3.0 × 10^5 Bacteria/ml and 3.7 × 10^7 Bacteria/ml and 6.0 × 10^6 Bacteria/ml. The “Fungi/ml Day 1” value in series [1] is 5.1 × 10^4 Fungi/ml and 7.0 × 10^4 Fungi/ml and 5.7 × 10^4 Fungi/ml. Also, in series [3], the “Fungi/ml Day 3” value is 7.7 × 10^4 Fungi/ml and 4.1 × 10^4 Fungi/ml. Also, in series [7], the “Bacteria/ml Week 4” value was 3.2 × 10^6 Bacteria/ml and the “Bacteria/ml Week 9” value is reported as 6.1 × 10^6 Bacteria/ml. In series [4], the “Fungi/ml Week 4” value is on record as 8.9 × 10^4 Fungi/ml and the “Fungi/ml Week 9” value is 5.6 × 10^4 Fungi/ml. Besides, the “Initial Blue Color” value in series [8] is “light and dark and blue”.
In the case of zinc chloride [ZnCl2], in series [1], the “Fungi/ml Day 1” value was 7.7 × 10^4 Fungi/ml and 5.9 × 10^4 Fungi/ml and 5.2 × 10^4 Fungi/ml; the “Fungi/ml Day 4” value is 4.3 × 10^4 Fungi/ml and 3.2 × 10^4 Fungi/ml and 3.1 × 10^4 Fungi/ml.
